The assay addresses T1, WT BetP (AMP-BetP) (Corynebacterium glutamicum, UniProt P54582).
T1 sequence (P54582 1-595): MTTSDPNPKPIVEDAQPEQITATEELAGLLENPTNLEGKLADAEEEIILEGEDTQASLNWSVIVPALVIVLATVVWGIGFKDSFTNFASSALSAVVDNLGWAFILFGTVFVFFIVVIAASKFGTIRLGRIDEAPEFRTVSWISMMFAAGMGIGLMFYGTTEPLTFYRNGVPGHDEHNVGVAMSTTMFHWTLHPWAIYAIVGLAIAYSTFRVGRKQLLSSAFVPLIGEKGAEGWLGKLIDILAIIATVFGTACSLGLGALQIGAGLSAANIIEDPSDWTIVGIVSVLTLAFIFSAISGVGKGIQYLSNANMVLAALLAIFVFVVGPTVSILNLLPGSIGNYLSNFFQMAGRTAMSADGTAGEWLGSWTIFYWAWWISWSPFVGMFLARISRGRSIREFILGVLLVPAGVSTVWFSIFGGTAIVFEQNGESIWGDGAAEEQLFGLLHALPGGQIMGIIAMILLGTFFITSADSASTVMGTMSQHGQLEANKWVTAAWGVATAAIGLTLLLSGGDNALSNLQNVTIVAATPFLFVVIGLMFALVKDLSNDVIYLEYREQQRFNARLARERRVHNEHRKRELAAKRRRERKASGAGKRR
The assay can be described thus: biochemical.

The term Kd denotes the free concentration of one partner at which half of the binding sites on the other are occupied at equilibrium, for simple one-to-one binding. For the compound `C[N+](C)(C)CC(=O)[O-]` [betaine], binding was put at a Kd of 188 ± 34 µM.

For the origin of these results see paper doi:10.1101/2022.06.02.493408v1 (biorxiv, 2022).
